The values below come from ChEMBL document CHEMBL3243967, “Potential antitumor agents. 25. Azalogues of the 4'-(9-acridinylamino) methanesulfonanilides” (J Med Chem, 1977).

Data set [1] in a line: Lipophilic-hydrophilic balance, Rm of the compound by reversed-phase partition chromatography. The class given is physicochemical.
Data set [2] can be described thus: Ionization constant, pKa of the compound in 20% DMF-buffer mixture by UV spectrophotometry. The class given is physicochemical.
Data set [3] is described as follows: Toxicity in ip dosed mouse allografted with mouse L1210 cells administered qd from day 1 to 5 of challenge. The class given is organism-based. The conditions noted are these: in vivo.
In data set [4] the test system is L1210. Kind of data set: Antitumor activity against mouse L1210 cells allografted in ip dosed mouse assessed as increase in life span at optimal dose administered qd from day 1 to 5 of challenge relative to control. Type of data set: functional.
For data set [5], the system named is L1210. Kind of data set: Antitumor activity against mouse L1210 cells allografted in ip dosed mouse assessed as dose required for maximum increase in life span administered qd from day 1 to 5 of challenge. Type of data set: functional.
The nature of data set [6]: Ionization constant, pKa of the compound at pH 7.4. The class given is physicochemical.

A word on the pKa: it is the negative logarithm of the acid dissociation constant. Compound `CS(=O)(=O)Nc1ccc(Nc2c3ccccc3nc3c([N+](=O)[O-])cccc23)cc1` gave a Rm in data set [1] of -0.17. Moreover, the pKa in data set [2] turned out to be 4.88. The same compound had an MTD in data set [3] of more than 500 mg/kg.
The like results for `CS(=O)(=O)Nc1ccc(Nc2c3ccccc3nc3ncccc23)cc1` were, in that order, -0.27, 5.93 and more than 500 mg/kg.
The like results for `CS(=O)(=O)Nc1ccc(Nc2c3ccccc3nc3cccnc23)cc1` were, in that order, -0.56, 6.9 and more than 500 mg/kg.
As for `CS(=O)(=O)Nc1ccc(Nc2c3ccccc3nc3cccc([N+](=O)[O-])c23)cc1`, the Rm in data set [1] is -0.09. For the same compound, the pKa in data set [2] was 4.79. Further, the MTD in data set [3] was 75 mg/kg.
The compound `COc1cc(Nc2c3ccccc3nc3c([N+](=O)[O-])cccc23)ccc1NS(C)(=O)=O` had a Rm in data set [1] of 0.09. Further, the “Increase in life span” value in data set [4] is recorded as 38%. Further, the pKa in data set [2] amounted to 5.05. The Activity in data set [5] came out at 75 mg/kg.
Turning to `CS(=O)(=O)Nc1ccc(Nc2c3ccccc3nc3cc([N+](=O)[O-])ccc23)cc1`, the Rm in data set [1] is -0.17. In data set [4], the “Increase in life span” value worked out at 123%. For the same compound, the pKa in data set [2] worked out at 5.52. Besides, the Activity in data set [5] amounted to 25 mg/kg.
`CS(=O)(=O)Nc1ccc(Nc2c3ccccc3nc3ccncc23)cc1` came in with a Rm in data set [1] of -0.39. Further, the pKa in data set [2] amounted to 5.73. This compound also had an MTD in data set [3] of more than 500 mg/kg.
In data set [6], `CS(=O)(=O)Nc1ccc(Nc2c3ccc([N+](=O)[O-])cc3nc3cc([N+](=O)[O-])ccc23)cc1` yielded a pKa of 3.68.
`COc1cc(Nc2c3ccccc3nc3cccnc23)ccc1NS(C)(=O)=O` yielded a Rm in data set [1] of -0.39. In data set [2], the pKa amounted to 7.19. The MTD in data set [3] was 220 mg/kg.
In data set [1], `COc1cc(Nc2c3ccccc3nc3ccncc23)ccc1NS(C)(=O)=O` displayed a Rm of -0.25. Also, the pKa in data set [2] came out at 5.84. Besides, the MTD in data set [3] turned out to be 500 mg/kg.
Compound `COc1cc(Nc2c3ccccc3nc3cnccc23)ccc1NS(C)(=O)=O` displayed a Rm in data set [1] of -0.13. The “Increase in life span” value in data set [4] is reported as 88%. Moreover, the pKa in data set [2] was 5.53. Also, the Activity in data set [5] is 90 mg/kg.
`COc1cc(Nc2c3ccccc3nc3ncccc23)ccc1NS(C)(=O)=O` displayed a Rm in data set [1] of -0.07. For the same compound, in data set [4], the “Increase in life span” value stood at 89%. The pKa in data set [2] is 6.09. Besides, in data set [5], the Activity was 62 mg/kg.
Consider `COc1cc(Nc2c3ccccc3nc3cccc([N+](=O)[O-])c23)ccc1NS(C)(=O)=O`, for which, in data set [1], the Rm is recorded as -0.01. In addition, in data set [4], the “Increase in life span” value is given as 44%. For the same compound, the pKa in data set [2] came to 4.98. Also, the Activity in data set [5] is 180 mg/kg.
In data set [1], `COc1cc(Nc2c3ccccc3nc3ccc([N+](=O)[O-])cc23)ccc1NS(C)(=O)=O` gave a Rm of -0.06. The pKa in data set [2] came out at 5.63. In data set [3], this compound registered an MTD of more than 500 mg/kg.
As to `COc1cc(Nc2c3ccccc3nc3cc([N+](=O)[O-])ccc23)ccc1NS(C)(=O)=O`, in data set [1], the Rm is 0.11. Moreover, the “Increase in life span” value in data set [4] stood at 84%. In addition, in data set [2], the pKa stood at 5.72. Further, in data set [5], the Activity came to 4.5 mg/kg.
With `CS(=O)(=O)Nc1ccc(Nc2c3ccccc3nc3ccc(N)cc23)cc1`, the Rm in data set [1] was -0.31. In addition, the “Increase in life span” value in data set [4] is reported as 78%. Moreover, the pKa in data set [2] came to 7.15. The Activity in data set [5] amounted to 25 mg/kg.
Take `CS(=O)(=O)Nc1ccc(Nc2c3ccccc3nc3ccc([N+](=O)[O-])cc23)cc1`: the Rm in data set [1] is recorded as -0.21. The “Increase in life span” value in data set [4] worked out at 27%. In addition, the pKa in data set [2] worked out at 5.42. Further, the Activity in data set [5] came to 250 mg/kg.
`CS(=O)(=O)Nc1ccc(Nc2c3ccccc3nc3cnccc23)cc1` came in with a Rm in data set [1] of -0.33. Also, the pKa in data set [2] was determined as 5.32. For the same compound, the MTD in data set [3] is more than 500 mg/kg.
In data set [1], `CS(=O)(=O)Nc1ccc(Nc2c3ccccc3nc3cc(N)ccc23)cc1` returned a Rm of -0.17. Besides, the “Increase in life span” value in data set [4] amounted to 81%. Also, the pKa in data set [2] came out at 9.8. The Activity in data set [5] is 2.5 mg/kg.
With `CS(=O)(=O)Nc1ccc(Nc2c3ccccc3nc3ccccc23)cc1`, the Rm in data set [1] amounted to 0. For the same compound, the “Increase in life span” value in data set [4] is 107%. Moreover, the Activity in data set [5] was 45 mg/kg.
